Results: patent publication US10294202B2, “Pyrrolidinones as herbicides” (FMC Corporation, priority 2013, dated 2019)

Assays:
barnyardgrass = experiment: Test A pre-/postemergence herbicide test; assay type: in vivo, Echinochloa crus-galli
Outline: (§1)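 Seeds in loam–sand blend received preemergence directed soil spray; separately, plants 2–10 cm at one- to two-leaf stage received postemergence spray, both with test chemicals in non-phytotoxic solvent with surfactant. After ~10 days in greenhouse, injury rated visually against untreated controls, 0 (no effect) to 100 (complete control).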

giant foxtail = experiment: Test A pre-/postemergence herbicide test; assay type: in vivo, Setaria faberii
Outline: as §1

ducksalad = experiment: Test B flooded paddy test; assay type: in vivo, Heteranthera limosa; conditions: 500 g ai/ha, Flood; scale of 0 to 100 where 0 is no effect and 100 is complete control
Outline: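 Scoring: visual, compared with untreated controls, 0 = no effect through 100 = complete control, taken 13 to 15 days after treatment in the greenhouse. Compounds had been added to paddy water over soil flooded 3 cm deep at the plants' 2-leaf stage.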

ryegrass, Italian = experiment: Test C pre-/postemergence herbicide test; assay type: in vivo, Lolium multiflorum
Outline: (§2)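 Pre-emergence: seeds sown in loam/sand blend and treated with compound in surfactant-containing solvent. Post-emergence: plants at 2–18 cm (1- to 4-leaf stage) in peat-based medium sprayed with the same formulation. Visual rating versus controls after 13–15 days in greenhouse, scale 0 (no effect) to 100 (complete control).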

corn = experiment: Test C pre-/postemergence herbicide test; assay type: in vivo, Zea mays
Outline: as §2

crabgrass, large = experiment: Test C pre-/postemergence herbicide test; assay type: in vivo, Digitaria sanguinalis
Outline: as §2

johnsongrass = experiment: Test C pre-/postemergence herbicide test; assay type: in vivo, Sorghum halepense
Outline: as §2

lambsquarters = experiment: Test C pre-/postemergence herbicide test; assay type: in vivo, Chenopodium album
Outline: as §2

nutsedge, yellow = experiment: Test C pre-/postemergence herbicide test; assay type: in vivo, Cyperus esculentus
Outline: as §2

pigweed = experiment: Test C pre-/postemergence herbicide test; assay type: in vivo, Amaranthus retroflexus
Outline: as §2

soybean = experiment: Test C pre-/postemergence herbicide test; assay type: in vivo, Glycine max
Outline: as §2

[1] = Postemergence, 125 g ai/ha, visual rating on 0 to 100 scale (0 no effect, 100 complete control), approx. 10 days
[2] = Postemergence, 500 g ai/ha, 0 to 100 scale (0 no effect, 100 complete control)
[3] = Preemergence, 125 g ai/ha, 0 to 100 scale where 0 is no effect and 100 is complete control
[4] = Preemergence, 500 g ai/ha, visual rating on 0 to 100 scale (0 no effect, 100 complete control)
[5] = Postemergence, 31 g ai/ha, scale 0 to 100 (0 no effect, 100 complete control)
[6] = Postemergence, 62 g ai/ha, scale 0 (no effect) to 100 (complete control)
[7] = Postemergence, 125 g ai/ha, scale 0 to 100 (0 no effect, 100 complete control)
[8] = Postemergence, 250 g ai/ha, scale 0 to 100 (0 no effect, 100 complete control)
[9] = Preemergence, 62 g ai/ha, scale 0 to 100 (0 no effect, 100 complete control)
[10] = Preemergence, 125 g ai/ha, scale 0 to 100 (0 no effect, 100 complete control)
[11] = Preemergence, 31 g ai/ha, scale 0 to 100, 0 is no effect and 100 is complete control
[12] = Preemergence, 125 g ai/ha, scale 0 to 100

## CN1CC(c2ccc(C(F)(F)F)cc2)C(C(=O)Nc2cccc(F)c2F)C1=O (stereo not drawn) [Compound 306]
barnyardgrass; [1]
  Plant response rating, Barnyardgrass: 80
barnyardgrass; [2]
  Plant response rating, Barnyardgrass: 80
barnyardgrass; [3]
  Plant response rating, Barnyardgrass: 90
barnyardgrass; [4]
  Barnyardgrass plant response rating: 90
Giant foxtail; [1]
  Plant response rating, Foxtail, Giant: 80
Giant foxtail; [2]
  Plant response rating, Foxtail, Giant: 80
Giant foxtail; [3]
  Plant response rating, Foxtail, Giant: 90
Giant foxtail; [4]
  Foxtail, Giant plant response rating: 90
ducksalad
  Plant response rating, Ducksalad: 100
ryegrass, Italian; [5]
  Plant response rating, Ryegrass, Italian: 0
ryegrass, Italian; [6]
  Plant response rating, Ryegrass, Italian: 0
ryegrass, Italian; [7]
  Plant response rating, Ryegrass, Italian: 5
ryegrass, Italian; [8]
  Plant response rating, Ryegrass, Italian: 20
ryegrass, Italian; [9]
  Ryegrass, Italian plant response rating: 40
ryegrass, Italian; [10]
  Plant response rating, Ryegrass, Italian: 55
ryegrass, Italian; Preemergence, 250 g ai/ha
  Plant response rating (scale of 0 to 100), Ryegrass, Italian: 70
corn; [5]
  Plant response rating, Corn: 0
corn; [6]
  Plant response rating, Corn: 0
corn; [7]
  Plant response rating, Corn: 0
corn; [8]
  Plant response rating, Corn: 20
corn; [11]
  Corn plant response rating: 40
corn; [9]
  Corn plant response rating: 60
corn; [10]
  Plant response rating, Corn: 80
corn; Preemergence, 250 g ai/ha
  Plant response rating (scale of 0 to 100), Corn: 75
crabgrass, large; [5]
  Plant response rating, Crabgrass, Large: 10
crabgrass, large; [6]
  Plant response rating, Crabgrass, Large: 45
crabgrass, large; [7]
  Plant response rating, Crabgrass, Large: 75
crabgrass, large; [8]
  Plant response rating, Crabgrass, Large: 85
crabgrass, large; [11]
  Crabgrass, Large plant response rating: 90
crabgrass, large; [9]
  Crabgrass, Large plant response rating: 95
crabgrass, large; [10]
  Plant response rating, Crabgrass, Large: 95
crabgrass, large; Preemergence, 250 g ai/ha
  Plant response rating (scale of 0 to 100), Crabgrass, Large: 98
johnsongrass; [5]
  Plant response rating, Johnsongrass: 0
johnsongrass; [6]
  Plant response rating, Johnsongrass: 0
johnsongrass; [7]
  Plant response rating, Johnsongrass: 0
johnsongrass; [8]
  Plant response rating, Johnsongrass: 0
johnsongrass; [11]
  Johnsongrass plant response rating: 35
johnsongrass; [9]
  Johnsongrass plant response rating: 55
johnsongrass; [10]
  Plant response rating, Johnsongrass: 80
johnsongrass; Preemergence, 250 g ai/ha
  Plant response rating (scale of 0 to 100), Johnsongrass: 85
lambsquarters; [5]
  Plant response rating, Lambsquarters: 60
lambsquarters; [6]
  Plant response rating, Lambsquarters: 70
lambsquarters; [7]
  Plant response rating, Lambsquarters: 90
lambsquarters; [8]
  Plant response rating, Lambsquarters: 75
lambsquarters; [11]
  Lambsquarters plant response rating: 55
lambsquarters; [9]
  Lambsquarters plant response rating: 65
lambsquarters; [10]
  Plant response rating, Lambsquarters: 75
lambsquarters; Preemergence, 250 g ai/ha
  Plant response rating (scale of 0 to 100), Lambsquarters: 80
nutsedge, yellow; [5]
  Plant response rating, Nutsedge, Yellow: 0
nutsedge, yellow; [6]
  Plant response rating, Nutsedge, Yellow: 0
nutsedge, yellow; [8]
  Plant response rating, Nutsedge, Yellow: 0
nutsedge, yellow; [11]
  Nutsedge, Yellow plant response rating: 0
nutsedge, yellow; [9]
  Nutsedge, Yellow plant response rating: 0
nutsedge, yellow; [10]
  Plant response rating, Nutsedge, Yellow: 0
nutsedge, yellow; Preemergence, 250 g ai/ha
  Plant response rating (scale of 0 to 100), Nutsedge, Yellow: 10
pigweed; [5]
  Plant response rating, Pigweed: 75
pigweed; [6]
  Plant response rating, Pigweed: 85
pigweed; [7]
  Plant response rating, Pigweed: 85
pigweed; [8]
  Plant response rating, Pigweed: 90
pigweed; [11]
  Pigweed plant response rating: 80
pigweed; [9]
  Pigweed plant response rating: 85
pigweed; [10]
  Plant response rating, Pigweed: 85
pigweed; Preemergence, 250 g ai/ha
  Plant response rating (scale of 0 to 100), Pigweed: 90
soybean; [5]
  Plant response rating, Soybean: 0
soybean; [6]
  Plant response rating, Soybean: 5
soybean; [7]
  Plant response rating, Soybean: 5
soybean; [8]
  Plant response rating, Soybean: 5
soybean; [9]
  Soybean plant response rating: 0
soybean; [10]
  Plant response rating, Soybean: 0
soybean; Preemergence, 250 g ai/ha
  Plant response rating (scale of 0 to 100), Soybean: 0

## O=C1NCC(c2cccc(Br)c2)C1C(=O)Nc1ccc(F)c(F)c1F (stereo not drawn) [Compound 310]
barnyardgrass; [1]
  Plant response rating, Barnyardgrass: 90
barnyardgrass; [2]
  Plant response rating, Barnyardgrass: 90
barnyardgrass; [3]
  Plant response rating, Barnyardgrass: 90
barnyardgrass; [4]
  Barnyardgrass plant response rating: 90
Giant foxtail; [1]
  Plant response rating, Foxtail, Giant: 90
Giant foxtail; [2]
  Plant response rating, Foxtail, Giant: 90
Giant foxtail; [3]
  Plant response rating, Foxtail, Giant: 90
Giant foxtail; [4]
  Foxtail, Giant plant response rating: 90
ducksalad
  Plant response rating, Ducksalad: 100
ryegrass, Italian; [5]
  Plant response rating, Ryegrass, Italian: 0
ryegrass, Italian; [6]
  Plant response rating, Ryegrass, Italian: 0
ryegrass, Italian; [7]
  Plant response rating, Ryegrass, Italian: 0
ryegrass, Italian; [8]
  Plant response rating, Ryegrass, Italian: 5
ryegrass, Italian; [9]
  Ryegrass, Italian plant response rating: 0
ryegrass, Italian; [12]
  Plant response rating, Ryegrass, Italian: 20
ryegrass, Italian; Preemergence, 250 g ai/ha
  Plant response rating (scale of 0 to 100), Ryegrass, Italian: 25
corn; [5]
  Plant response rating, Corn: 0
corn; [6]
  Plant response rating, Corn: 0
corn; [7]
  Plant response rating, Corn: 60
corn; [8]
  Plant response rating, Corn: 30
corn; [11]
  Corn plant response rating: 0
corn; [9]
  Corn plant response rating: 0
corn; [12]
  Plant response rating, Corn: 55
corn; Preemergence, 250 g ai/ha
  Plant response rating (scale of 0 to 100), Corn: 55
crabgrass, large; [5]
  Plant response rating, Crabgrass, Large: 0
crabgrass, large; [6]
  Plant response rating, Crabgrass, Large: 10
crabgrass, large; [7]
  Plant response rating, Crabgrass, Large: 70
crabgrass, large; [8]
  Plant response rating, Crabgrass, Large: 70
crabgrass, large; [11]
  Crabgrass, Large plant response rating: 90
crabgrass, large; [9]
  Crabgrass, Large plant response rating: 90
crabgrass, large; [12]
  Plant response rating, Crabgrass, Large: 95
crabgrass, large; Preemergence, 250 g ai/ha
  Plant response rating (scale of 0 to 100), Crabgrass, Large: 95
johnsongrass; [5]
  Plant response rating, Johnsongrass: 0
johnsongrass; [6]
  Plant response rating, Johnsongrass: 0
johnsongrass; [7]
  Plant response rating, Johnsongrass: 0
johnsongrass; [8]
  Plant response rating, Johnsongrass: 5
johnsongrass; [11]
  Johnsongrass plant response rating: 0
johnsongrass; [9]
  Johnsongrass plant response rating: 0
johnsongrass; [12]
  Plant response rating, Johnsongrass: 45
johnsongrass; Preemergence, 250 g ai/ha
  Plant response rating (scale of 0 to 100), Johnsongrass: 75
lambsquarters; [5]
  Plant response rating, Lambsquarters: 25
lambsquarters; [6]
  Plant response rating, Lambsquarters: 65
lambsquarters; [7]
  Plant response rating, Lambsquarters: 65
lambsquarters; [8]
  Plant response rating, Lambsquarters: 70
lambsquarters; [11]
  Lambsquarters plant response rating: 0
lambsquarters; [9]
  Lambsquarters plant response rating: 5
lambsquarters; [12]
  Plant response rating, Lambsquarters: 55
lambsquarters; Preemergence, 250 g ai/ha
  Plant response rating (scale of 0 to 100), Lambsquarters: 80
nutsedge, yellow; [5]
  Plant response rating, Nutsedge, Yellow: 0
nutsedge, yellow; [6]
  Plant response rating, Nutsedge, Yellow: 0
nutsedge, yellow; [7]
  Plant response rating, Nutsedge, Yellow: 0
nutsedge, yellow; [8]
  Plant response rating, Nutsedge, Yellow: 25
nutsedge, yellow; [11]
  Nutsedge, Yellow plant response rating: 0
nutsedge, yellow; [9]
  Nutsedge, Yellow plant response rating: 0
nutsedge, yellow; [12]
  Plant response rating, Nutsedge, Yellow: 0
nutsedge, yellow; Preemergence, 250 g ai/ha
  Plant response rating (scale of 0 to 100), Nutsedge, Yellow: 0
pigweed; [5]
  Plant response rating, Pigweed: 35
pigweed; [6]
  Plant response rating, Pigweed: 40
pigweed; [7]
  Plant response rating, Pigweed: 60
pigweed; [8]
  Plant response rating, Pigweed: 70
pigweed; [11]
  Pigweed plant response rating: 0
pigweed; [9]
  Pigweed plant response rating: 5
pigweed; [12]
  Plant response rating, Pigweed: 20
pigweed; Preemergence, 250 g ai/ha
  Plant response rating (scale of 0 to 100), Pigweed: 20
soybean; [5]
  Plant response rating, Soybean: 10
soybean; [6]
  Plant response rating, Soybean: 10
soybean; [7]
  Plant response rating, Soybean: 0
soybean; [8]
  Plant response rating, Soybean: 0
soybean; [9]
  Soybean plant response rating: 0
soybean; [12]
  Plant response rating, Soybean: 0
soybean; Preemergence, 250 g ai/ha
  Plant response rating (scale of 0 to 100), Soybean: 0
